Assays:
Format in all cases: biochemical, Trichoderma atroviride
FgenL model RNA [1] = assay: TapeStation Assay, FgenL model RNA; parameters: Conc. FgenL#1 / Conc. FgenL#2: unit not given here; details: for % Control N = 1 / % Control N = 2 / % Control Average: FgenL RNA, 20 mM amino acids, 50 mM CAPS pH 11, 50° C. 15 min; for % Control N = 1 / % Control N = 2: vs Time 0; for % Control Average: vs Time 0, Avg N=2; for Conc. FgenL#1 / Conc. FgenL#2: intact FgenL RNA after 15 min at 50° C.; for Conc. FgenL#1: 20 mM amino acids in 50 mM CAPS pH 11, run #1; for Conc. FgenL#2: 20 mM amino acids in 50 mM CAPS pH 11, run #2
Method: (§1) These assays were performed with amino acids and compared to a no-degradation baseline control to gauge degree of protection imparted by the amino acid. Multiple functional assay approaches were used where differing endpoints were measured including a droplet digital PCR (ddPCR) assay where intact RNA sequence was quantitated, a size exclusion base hydrolysis degradation assay that used a size exclusion column to determine the degree of degradation occurring to an mRNA construct, and finally, a TapeStation assay that utilizes capillary electrophoresis and optical detection to measure intact RNA. […] Affinity selection by mass spectrometry (ASMS), native electrospray ionization mass spectrometry (nESI-MS) and nuclear magnetic resonance (NMR) may be used as several complementary approaches to ascertain compound binding to RNA. The latter techniques utilize MS to measure mass of bound compound alone (ASMS), or mass of RNA and bound compound (nESI-MS). The nESI-MS and NMR studies may be conducted to provide direct analytical quantification of resulting complex via measurement of mass (nESI-MS) or chemical shifts (NMR). The ASMS experiment is conducted to determine saturation binding of the compound to RNA where resulting apparent binding constants (KD,App) may be generated. Further descriptions of the functional and binding assays are provided in the section below.
(§2) In principle, samples are loaded to the instrument where electrophoresis separates component RNA's on the basis of mass, and subsequently analyzes these optically as they travel through the capillary.
(§3) RNA samples were diluted to the appropriate concentration to fall within the linear range of detection for the RNA ScreenTape Assay. Model Chi18 or FgenL RNAs were diluted to 50 ng/μL in 50 mM CAPS buffer pH 11. Amino acid stocks were made up in 50 mM CAPS pH 11 and re-adjusted to >pH 11 after solubilization. […] The samples were aliquoted to PCR tubes for each time point (Time 0 or 15 minutes). Degradation reaction: Samples were incubated at 50° C. for 0 to 15 minutes in a thermocycler, removed at the appropriate time point and placed on ice. Time 0 samples remained on ice.

Chi18 model RNA [2] = assay: TapeStation Assay, Chi18 model RNA; parameters: Conc. chi18#1 / Conc. chi18#2: unit not given here; details: for % Control N = 1 / % Control N = 2 / % Control Avg.: Chi18 RNA, 20 mM amino acids, 50 mM CAPS pH 11, 50° C. 15 min; for % Control N = 1 / % Control N = 2: vs Time 0; for % Control Avg.: vs Time 0, Avg N=2; for Conc. chi18#1: 20 mM amino acids in 50 mM CAPS pH 11, run #1
Method: as §1, §2, §3

FgenL model RNA [3] = details: percent protection, pH 11.0, 44° C., 16 hours, n = 2
Method: (§4) The ddPCR assays measure RNA integrity by converting intact RNA to cDNA by reverse transcription, then performing digital PCR in thousands of nanoliter-sized droplets for each sample. PCR is performed within each droplet, which allows for more sensitive detection of subtle changes in RNA concentration compared to traditional PCR or qPCR. Additionally, primers/probes specific to the 5′ end of the RNA/cDNA transcript(s) are used to assess fragment integrity—e.g. degraded RNA will have fewer 5′ positive droplets. The BioRad QX200 Droplet Digital PCR System was used for the ddPCR workflow.
(§5) Basic assay procedure: RNA samples (Chi18 or FgenL fragments) were diluted to 25 fg/μL or 10 fg/μL, respectively, in 50 mM […] buffer pH 11.0. Amino acid stocks were made up in 50 mM CAPS buffer, pH 11.0 and subsequently re-adjusted to pH 11.0, post solubilization. Amino acid stocks were tested in a dose-response format to determine EC50. An amino acid dilution plate containing a ˜300 mM (or appropriate) top-concentration of amino acid in 50 mM CAPS buffer was serially (half-log) diluted for 10 times. 0.6 μL of this compound dilution plate was spotted into a 96-well PCR plate (Thermo). Sample RNAs were added (6 μL) and incubated with test amino acid as described below.
(§6) Degradation reaction: Treated RNAs were incubated for 16 hours at 30° C. for Chi18 samples or 44° C. for FgenL samples. Upon completion of the degradation reaction, cDNA was made from the intact RNA by Reverse Transcription and ddPCR run for each sample (96 well plates). Positive 5′ droplet values were divided by the total accepted droplet values for each sample and a ratio value generated for each sample.
(§7) EC50 was determined by using a four parameter logistic equation: Y=A+((B−A)/(1+(C/X)D)); where Y is percent protection, X is compound concentration, A and B are minimum and maximum asymptotes, respectively, C is EC50, and D is Hill slope.

Chi18 model RNA [4] = assay: Droplet Digital Polymerase Chain Reaction (ddPCR) Assay, Chi18; details: percent protection, pH 11.0, 30° C., 16 hours, n = 2
Method: as §4, §5, §6, §7

[5] = intact Chi18 RNA after 15 min at 50° C.

Row | SMILES | % Control N = 1 (FgenL model RNA [1]) | % Control N = 2 (FgenL model RNA [1]) | % Control Average (FgenL model RNA [1]) | Conc. FgenL#1 (FgenL model RNA [1]) | Conc. FgenL#2 (FgenL model RNA [1]) | % Control N = 1 (Chi18 model RNA [2]) | % Control N = 2 (Chi18 model RNA [2]) | % Control Avg. (Chi18 model RNA [2]) | Conc. chi18#1 (Chi18 model RNA [2]; [5]) | EC50 (FgenL model RNA [3]) | Conc. chi18#2 (Chi18 model RNA [2]; intact Chi18 RNA after 15 min at 50° C., 20 mM amino acids in 50 mM CAPS pH 11, run #2) | EC50 (Chi18 model RNA [4])
1 | O[C@H](CS)[C@H](O)CS (racemic) [DTT, dithiothreitol] | 8.3% | 9.0% | 8.7% | 2.86 | 3.13 | 10.7% | 10.7% | 10.7% | 5.68 | – | – | –
2 | N[C@@H](CSSC[C@H](N)C(=O)O)C(=O)O [Cystine] | 75.9% | 64.6% | 70.2% | 26.2 | 22.4 | 53.1% | 42.7% | 47.9% | 28.3 | > 30 mM | 22.6 | > 29 mM
3 | O=C(O)CCP(CCC(=O)O)CCC(=O)O [TCEP, tris(2-carboxyethyl)phosphine] | 5.0% | 4.0% | 4.5% | 1.71 | 1.38 | 2.6% | 2.6% | 2.6% | 1.41 | > 30 mM | – | > 30 mM
